Experimental data reported in patent publication US20160355465A1, “NOVEL MODIFIED CURCUMINS AND THEIR USES” (THE RESEARCH FOUNDATION OF STATE UNIVERSITY OF NEW YORK, priority 2011, published 2016).
Read-outs that look alike come from different tables or passages of the source.

How the values were obtained:
MMP-1 = molecular target: T1, MMP-1 (Homo sapiens, UniProt P03956); test: fluorimetric assay of MMP activity; assay type: biochemical; settings: synthetic fluorescent peptide substrate Mca-Lys-Pro-Leu-Gly-Leu-Dpa-Ala-Arg-NH2
T1 sequence (P03956 100-469): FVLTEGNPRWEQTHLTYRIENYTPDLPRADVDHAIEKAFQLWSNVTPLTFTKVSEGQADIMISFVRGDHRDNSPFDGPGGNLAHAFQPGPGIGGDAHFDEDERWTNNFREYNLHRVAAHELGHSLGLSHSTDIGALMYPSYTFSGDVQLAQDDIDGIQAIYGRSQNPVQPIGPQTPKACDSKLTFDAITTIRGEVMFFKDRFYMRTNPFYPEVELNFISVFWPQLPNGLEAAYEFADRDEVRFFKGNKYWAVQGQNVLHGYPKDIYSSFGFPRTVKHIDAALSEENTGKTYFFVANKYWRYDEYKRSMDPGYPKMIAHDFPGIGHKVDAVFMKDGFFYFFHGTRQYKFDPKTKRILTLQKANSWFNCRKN

MMP-2 = molecular target: T2, MMP-2 (Homo sapiens, UniProt P08253); test: fluorimetric assay of MMP activity; assay type: biochemical
T2 sequence (P08253 110-660): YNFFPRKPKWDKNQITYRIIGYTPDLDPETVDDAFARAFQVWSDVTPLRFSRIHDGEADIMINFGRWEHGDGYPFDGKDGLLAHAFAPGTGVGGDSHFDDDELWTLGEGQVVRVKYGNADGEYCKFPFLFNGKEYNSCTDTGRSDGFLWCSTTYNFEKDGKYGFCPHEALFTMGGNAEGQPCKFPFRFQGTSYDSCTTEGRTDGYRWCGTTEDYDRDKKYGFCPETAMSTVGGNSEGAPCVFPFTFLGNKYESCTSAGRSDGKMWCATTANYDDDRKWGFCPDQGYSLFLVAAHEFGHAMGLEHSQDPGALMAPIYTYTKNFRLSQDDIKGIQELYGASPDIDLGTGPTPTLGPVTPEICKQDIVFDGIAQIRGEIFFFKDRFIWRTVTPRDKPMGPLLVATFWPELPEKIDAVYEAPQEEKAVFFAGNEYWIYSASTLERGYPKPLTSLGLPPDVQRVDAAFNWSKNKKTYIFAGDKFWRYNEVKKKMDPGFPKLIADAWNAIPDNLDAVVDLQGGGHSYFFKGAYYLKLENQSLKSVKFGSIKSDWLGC

MMP-9 = MMP-9 (Homo sapiens, UniProt P14780); test: fluorimetric assay of MMP activity; assay type: biochemical; settings: synthetic fluorescent peptide substrate Mca-Lys-Pro-Leu-Gly-Leu-Dpa-Ala-Arg-NH2
MMP-8 = MMP-8 (Homo sapiens, UniProt P22894); test: fluorimetric assay of MMP activity; assay type: biochemical; settings: synthetic fluorescent peptide substrate Mca-Lys-Pro-Leu-Gly-Leu-Dpa-Ala-Arg-NH2
MMP-13 = MMP-13 (Homo sapiens, UniProt P45452); test: fluorimetric assay of MMP activity; assay type: biochemical; settings: synthetic fluorescent peptide substrate Mca-Lys-Pro-Leu-Gly-Leu-Dpa-Ala-Arg-NH2
MMP-3 = MMP-3 (Homo sapiens, UniProt P08254); test: fluorimetric assay of MMP activity; assay type: biochemical; settings: synthetic fluorescent peptide substrate Mca-Lys-Pro-Leu-Gly-Leu-Dpa-Ala-Arg-NH2
MMP-14 = MMP-14 (Homo sapiens, UniProt P50281); test: fluorimetric assay of MMP activity; assay type: biochemical; settings: synthetic fluorescent peptide substrate Mca-Lys-Pro-Leu-Gly-Leu-Dpa-Ala-Arg-NH2
MMP-12 = MMP-12 (Homo sapiens, UniProt P39900); test: fluorimetric assay of MMP activity; assay type: biochemical; settings: synthetic fluorescent peptide substrate Mca-Lys-Pro-Leu-Gly-Leu-Dpa-Ala-Arg-NH2
MMP-7 = molecular target: T3, MMP-7 (Homo sapiens, UniProt P09237); test: fluorimetric assay of MMP activity; assay type: biochemical; settings: synthetic fluorescent peptide substrate Mca-Lys-Pro-Leu-Gly-Leu-Dpa-Ala-Arg-NH2
T3 sequence (P09237 95-267): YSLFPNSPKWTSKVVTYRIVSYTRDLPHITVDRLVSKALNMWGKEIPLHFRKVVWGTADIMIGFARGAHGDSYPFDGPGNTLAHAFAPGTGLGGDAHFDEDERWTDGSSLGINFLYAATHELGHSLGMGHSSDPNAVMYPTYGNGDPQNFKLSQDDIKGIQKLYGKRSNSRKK

[1] = blood glucose of the rats of the collagen experiment; assay type: in vivo, rat; settings: diabetic rats
collagen in wound tissue = test: collagen fractions (hydroxyproline) in wound tissue of diabetic rats; assay type: in vivo, rat; settings: wound tissue day 6
Text: Biochemical measurements were made on wound tissue 6 days after creating the standardized 6 mm diameter wounds in the various groups of rats including: (1) non-diabetic controls (NDC); (2) Diabetic (DM) rats treated topically with 0.25% curcumin; (3) DM treated with 1% curcumin; (4) DM treated with 0.25% Compound 4, and (5) DM rats treated with 1% Compound 4. The wound tissues from these five different groups were then hydrolyzed (after extraction; see below) to degrade the collagen to individual amino acids, and the amino acid unique to collagen, hydroxyproline, was measured by a commercial colorimetric assay. Prior to hydrolysis, the wound tissues were extracted (at 4° C. to maintain the triple-helical conformation of the collagen molecules) to obtain first the salt-soluble fraction, then the acid-soluble fraction, leaving the insoluble fraction.

[2] = toxicity / tolerability in diabetic rats; assay type: in vivo; settings: at elevated levels
Protocol: The following five experimental groups (n=3 rats per group) were established: Non-diabetic control rats (NDC) treated by daily application of white petrolatum jelly (“vehicle”) for 7 days, diabetic rats (D group) treated daily with vehicle alone; diabetics treated by daily topical application of either a 1% (D+1%) or a 3% (D+3%) suspension of Compound 4 in the vehicle; and diabetics treated systemically by daily oral intubation of a 1 ml suspension of Compound 4 (in carboxymethylcellulose) at a dose of 30 mg/kg over the 7-day treatment protocol (D+30 mg/kg). At the end of this time period, the circular wounds were clinically assessed by measuring diameter of the wound in millimeters, blood samples were collected, the rats were sacrificed, and skin samples collected for histological/histochemical, and biochemical assessment as described below. • 1) On day 7 after inducing wound healing, the animals were anesthetized and blood samples collected for blood glucose (one Touch Ultra Glucometer; Johnson & Johnson, New Brunswick, N.J.) and Hemoglobin A1c (A1c Now+; Bayer Health Care, Sunnyvale, Calif.) measurements. • 2) Photographs were taken for clinical observations to assess wound closure. The % reduction of the wound surface was calculated by measuring the diameter (in millimeters) of each wound before and after the treatment protocol. • 3) Wound tissues on day 7 were excised from 3 sites per rat and pooled for biochemical analysis. […] The supernates were then dialyzed against the Tris-HCl, NaCl, CaCl2 buffer, and the proteinases partially purified by ammonium sulfate precipitation and examined for levels of MMP-2 (72 kD gelatinse) and MMP-9 (92 kD gelatinase) by gelatin zymography using denatured type I collagen (gelatin) as the substrate (6). • 4) The remaining wounds were assessed histologically & histochemically by Dr. Steve McClain (McClain Labs, Smithtown, N.Y.) as follows: Biopsies of each wound site were taken and included both the wound tissue and surrounding non-wounded tissue. […]

[3] = system: MMPs 1, 2, 3, 7, 8, 9, 12, 13 and 14; test: activity against a battery of MMPs (summary in words); assay type: biochemical, human
[4] = synthetic fluorescent peptide substrate Mca-Lys-Pro-Leu-Gly-Leu-Dpa-Ala-Arg-NH2, read-out: IC50 MMP-2

Chain of MMP-9 (P14780 94-707): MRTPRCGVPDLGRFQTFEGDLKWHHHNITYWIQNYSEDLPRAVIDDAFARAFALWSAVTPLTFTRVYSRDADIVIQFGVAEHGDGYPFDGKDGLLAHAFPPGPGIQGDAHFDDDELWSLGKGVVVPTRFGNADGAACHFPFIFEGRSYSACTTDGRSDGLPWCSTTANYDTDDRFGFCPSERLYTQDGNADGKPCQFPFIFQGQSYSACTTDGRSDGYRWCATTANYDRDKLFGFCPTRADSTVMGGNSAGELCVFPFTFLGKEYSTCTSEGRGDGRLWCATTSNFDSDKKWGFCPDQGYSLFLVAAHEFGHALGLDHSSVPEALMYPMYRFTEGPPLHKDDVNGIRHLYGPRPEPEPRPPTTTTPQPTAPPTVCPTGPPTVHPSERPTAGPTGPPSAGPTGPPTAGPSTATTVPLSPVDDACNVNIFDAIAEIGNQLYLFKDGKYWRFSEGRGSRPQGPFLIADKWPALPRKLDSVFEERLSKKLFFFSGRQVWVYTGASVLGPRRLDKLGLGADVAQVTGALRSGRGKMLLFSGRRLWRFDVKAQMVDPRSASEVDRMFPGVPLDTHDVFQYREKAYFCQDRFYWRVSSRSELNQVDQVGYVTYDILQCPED
Chain of MMP-12 (P39900 106-470): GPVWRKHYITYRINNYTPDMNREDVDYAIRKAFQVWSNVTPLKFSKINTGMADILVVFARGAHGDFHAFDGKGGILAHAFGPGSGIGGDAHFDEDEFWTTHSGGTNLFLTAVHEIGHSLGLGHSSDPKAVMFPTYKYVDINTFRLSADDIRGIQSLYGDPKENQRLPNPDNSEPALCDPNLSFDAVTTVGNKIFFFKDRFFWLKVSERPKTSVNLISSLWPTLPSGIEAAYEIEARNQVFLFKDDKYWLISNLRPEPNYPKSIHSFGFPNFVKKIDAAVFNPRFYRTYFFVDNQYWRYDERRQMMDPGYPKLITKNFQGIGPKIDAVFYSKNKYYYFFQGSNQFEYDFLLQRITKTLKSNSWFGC
Chain of MMP-8 (P22894 101-467): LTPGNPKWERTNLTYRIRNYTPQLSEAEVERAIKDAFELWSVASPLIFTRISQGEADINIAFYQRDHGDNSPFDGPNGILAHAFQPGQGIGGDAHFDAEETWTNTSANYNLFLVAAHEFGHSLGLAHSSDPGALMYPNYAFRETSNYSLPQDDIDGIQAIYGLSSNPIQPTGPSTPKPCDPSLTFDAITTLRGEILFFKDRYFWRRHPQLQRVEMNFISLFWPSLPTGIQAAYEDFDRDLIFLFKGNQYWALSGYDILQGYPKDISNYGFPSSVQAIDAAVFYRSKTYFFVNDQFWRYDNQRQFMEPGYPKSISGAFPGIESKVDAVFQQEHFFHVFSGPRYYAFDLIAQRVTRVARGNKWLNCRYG
Chain of MMP-3 (P08254 100-477): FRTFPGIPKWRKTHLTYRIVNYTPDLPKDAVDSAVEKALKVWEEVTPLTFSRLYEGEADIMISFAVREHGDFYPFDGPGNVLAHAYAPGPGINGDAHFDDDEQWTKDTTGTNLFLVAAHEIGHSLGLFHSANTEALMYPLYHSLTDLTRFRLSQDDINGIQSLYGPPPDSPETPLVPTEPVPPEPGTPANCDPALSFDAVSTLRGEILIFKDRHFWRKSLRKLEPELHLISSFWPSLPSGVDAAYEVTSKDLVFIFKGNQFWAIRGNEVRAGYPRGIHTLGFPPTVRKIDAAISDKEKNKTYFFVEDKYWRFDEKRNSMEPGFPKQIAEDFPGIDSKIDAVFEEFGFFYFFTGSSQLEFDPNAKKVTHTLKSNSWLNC

Compound | IC50 (MMP-1) [µM] | IC50 (MMP-2; [4]) [µM] | IC50 (MMP-9) [µM] | IC50 (MMP-8) [µM] | IC50 (MMP-13) [µM] | IC50 (MMP-3) [µM] | IC50 (MMP-14) [µM] | IC50 (MMP-12) [µM] | IC50 (MMP-7) [µM] | IC50 (MMP-2) [µM] | Blood Glucose ([1]; 0.25% topical) [mg/dL] | Blood Glucose ([1]; 1% topical) [mg/dL] | Collagen Fractions (%) Acid-soluble (collagen in wound tissue; 0.25% topical) [%] | Collagen Fractions (%) Insoluble (collagen in wound tissue; 0.25% topical) [%] | Collagen Fractions (%) Salt-soluble (collagen in wound tissue; 0.25% topical) [%] | Collagen Fractions (%) Acid-soluble (collagen in wound tissue; 1% topical) [%] | Collagen Fractions (%) Insoluble (collagen in wound tissue; 1% topical) [%] | Collagen Fractions (%) Salt-soluble (collagen in wound tissue; 1% topical) [%] | toxicity [2] | anti-MMP activity (in words) [3]
COC(=O)C(C(=O)/C=C/c1ccc(O)c(OC)c1)C(=O)/C=C/c1ccc(O)c(OC)c1 [Compound 2, 1,7-Bis(4-hydroxy-3-methoxyphenyl)-4-methoxycarbonylhepta-1E,6E-dien-3,5-dione] | 74 ± 3.5 | 25.3 ± 1.3 | 55 ± 17.3 | 30.8 ± 1.5 |  | 32.5 ± 2.8 | 48.5 ± 4.3 | 27.8 ± 1.7 | 48.8 ± 0.5 |  |  |  |  |  |  |  |  |  |  | 
COc1cc(/C=C/C(=O)C(C(=O)/C=C/c2ccc(O)c(OC)c2)C(=O)Nc2ccccc2)ccc1O [Compound 3, 1,7-Bis(4-hydroxy-3-methoxyphenyl)-4-N-phenylaminocarbonylhepta-1E, 6E-dien-3,5-dione] | 68 ± 3.2 | 6.3 ± 0.9 | 8.7 ± 0.7 | 2.5 ± 0.3 |  | 5.3 ± 0.7 | 41.3 ± 4.9 | 4.5 ± 0.5 | 21.5 ± 1 |  |  |  |  |  |  |  |  |  | some toxicity | highly active

Continued, in another order:

IC50 (MMP-1) [µM] | IC50 (MMP-2; [4]) [µM] | IC50 (MMP-9) [µM] | IC50 (MMP-8) [µM] | IC50 (MMP-13) [µM] | IC50 (MMP-3) [µM] | IC50 (MMP-14) [µM] | IC50 (MMP-12) [µM] | IC50 (MMP-7) [µM] | IC50 (MMP-2) [µM] | Compound | Blood Glucose ([1]; 0.25% topical) [mg/dL] | Blood Glucose ([1]; 1% topical) [mg/dL] | Collagen Fractions (%) Acid-soluble (collagen in wound tissue; 0.25% topical) [%] | Collagen Fractions (%) Insoluble (collagen in wound tissue; 0.25% topical) [%] | Collagen Fractions (%) Salt-soluble (collagen in wound tissue; 0.25% topical) [%] | Collagen Fractions (%) Acid-soluble (collagen in wound tissue; 1% topical) [%] | Collagen Fractions (%) Insoluble (collagen in wound tissue; 1% topical) [%] | Collagen Fractions (%) Salt-soluble (collagen in wound tissue; 1% topical) [%] | toxicity [2] | anti-MMP activity (in words) [3]
42 ± 1.1 | 73.8 ± 1 | 45 ± 12.6 | 31.3 ± 0.5 | 50 ± 10.4 | 77 ± 3.2 | 43.8 ± 4.2 | 29.5 ± 1.3 | 197 ± 8.8 |  | c1cnc2c(c1)ccc1cccnc12 [1,10-Phen, 1,10-phenanthroline, reference compound] |  |  |  |  |  |  |  |  |  | 
 |  | 30 ± 2.9 |  |  | 4.7 ± 0.8 | 29.5 ± 3.2 | 2.6 ± 0.2 | 51.8 ± 2.5 | 5 ± 0.7 | COc1cc(/C=C/C(=O)CC(=O)/C=C/c2ccc(O)c(OC)c2)ccc1O [Compound 1, 1,7-Bis(4-hydroxy-3-methoxyphenyl)hepta-1E,6E-dien-3,5-dione, reference compound] | 569 | 540 | 48.3 | 36.4 | 15.3 | 50.9 | 27.1 | 22.0 |  | 
76.3 ± 6.5 | 23.8 ± 0.9 | 43.3 ± 4.4 | 20 ± 2 | 26.7 ± 1.7 | 28.3 ± 1 | 40 ± 8.4 | 5.3 ± 0.3 | 57.5 ± 4.6 |  | COC(=O)C(C(=O)/C=C/c1ccc(O)cc1)C(=O)/C=C/c1ccc(O)cc1 [Compound 5, 1,7-Bis(4-hydroxyphenyl)-4-methoxycarbonylhepta-1E,6E-dien-3,5-dione] |  |  |  |  |  |  |  |  |  | 
